Experimental data published in patent US10913733B2, “Substituted piperidines thiazolyl acetamides as glycosidase inhibitors and uses thereof” (priority 2015, dated 2021).
“And” between values parts separate entries of the source, which are not always exact repeats. Equal entries are not always repeated.

The compounds below were run against human O-GlcNAcase (Homo sapiens (Human), UniProt O60502) (assay: Assay for determination of KI values for inhibition of O-GlcNAcase activity). Details: purified human O-GlcNAcase 0.7 nM; substrate 2 mM 4-Methylumbelliferyl N-acetyl-β-D-glucosaminide; pH 7.0; room temperature; Cheng-Prusoff; read-out: hOGA Ki.
human O-GlcNAcase, sequence (O60502 whole entry): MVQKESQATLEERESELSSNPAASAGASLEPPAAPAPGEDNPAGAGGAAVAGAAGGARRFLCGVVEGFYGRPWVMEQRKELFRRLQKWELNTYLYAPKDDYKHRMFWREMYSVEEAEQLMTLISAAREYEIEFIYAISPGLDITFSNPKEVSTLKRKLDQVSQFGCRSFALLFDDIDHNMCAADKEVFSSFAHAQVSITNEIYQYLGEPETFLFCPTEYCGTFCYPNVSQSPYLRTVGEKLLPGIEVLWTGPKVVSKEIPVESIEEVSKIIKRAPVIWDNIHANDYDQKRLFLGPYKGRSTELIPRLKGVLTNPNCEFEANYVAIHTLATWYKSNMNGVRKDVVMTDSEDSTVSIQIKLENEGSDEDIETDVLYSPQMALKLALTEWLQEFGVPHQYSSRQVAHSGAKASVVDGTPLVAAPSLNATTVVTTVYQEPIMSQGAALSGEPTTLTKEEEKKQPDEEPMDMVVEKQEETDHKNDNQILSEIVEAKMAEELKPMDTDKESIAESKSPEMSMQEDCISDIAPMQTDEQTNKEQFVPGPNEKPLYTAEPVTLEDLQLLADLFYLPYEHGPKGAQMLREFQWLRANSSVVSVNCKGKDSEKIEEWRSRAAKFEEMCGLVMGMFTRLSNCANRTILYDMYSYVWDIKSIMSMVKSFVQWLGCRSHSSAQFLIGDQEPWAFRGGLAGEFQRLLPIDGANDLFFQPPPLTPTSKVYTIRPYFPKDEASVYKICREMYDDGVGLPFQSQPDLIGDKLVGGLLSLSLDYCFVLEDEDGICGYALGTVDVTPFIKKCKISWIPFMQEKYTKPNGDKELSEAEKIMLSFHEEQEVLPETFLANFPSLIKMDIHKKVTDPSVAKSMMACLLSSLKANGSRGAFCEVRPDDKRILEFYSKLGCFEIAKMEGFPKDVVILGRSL
Assay type: biochemical
Protocol: Assay for Determination of KI Values for Inhibition of O-GlcNAcase Activity
Experimental procedure for kinetic analyses: Enzymatic reactions were carried out in a reaction containing 50 mM NaH2PO4, 100 mM NaCl and 0.1% BSA (pH 7.0) using 2 mM 4-Methylumbelliferyl N-acetyl-β-D-glucosaminide dihydrate (Sigma M2133) dissolved in ddH2O, as a substrate. The amount of purified human O-GlcNAcase enzyme used in the reaction was 0.7 nM. Test compound of varying concentrations was added to the enzyme prior to initiation of the reaction. The reaction was performed at room temperature in a 96-well plate and was initiated with the addition of substrate. The production of fluorescent product was measured every 60 sec for 45 min with a Tecan Infinite M200 plate-reader with excitation at 355 nm and emission detected at […], with 4-Methylumbelliferone (Sigma M1381) used to produce a standard curve. The slope of product production was determined for each concentration of compound tested and plotted, using standard curve fitting algorithms for sigmoidal dose response curves. The values for a four parameter logistic curve fit of the data were determined. KI values were determined using the Cheng-Prusoff equation; the Km of O-GlcNAcase for substrate was 0.2 mM.
`COc1ccc(C=C2CCN(Cc3cnc(NC(C)=O)s3)CC2)cc1OC` [Example 1, N-(5-((4-(3,4-dimethoxybenzylidene)piperidin-1-yl)methyl)thiazol-2-yl)acetamide] showed a Ki of 0.392 nM.
Work on `CC(=O)Nc1ncc(CN2CCC(=Cc3ccc(F)nc3)CC2)s1` [Example 2, N-(5-((4-((6-fluoropyridin-3-yl)methylene)piperidin-1-yl)methyl)thiazol-2-yl)acetamide] yielded a Ki of 2.08 nM.
`CC(=O)Nc1ncc(CN2CCC(=Cc3ccc(O)nc3)CC2)s1` [Example 3, N-(5-((4-((6-hydroxypyridin-3-yl)methylene)piperidin-1-yl)methyl)thiazol-2-yl)acetamide] was tested, and the Ki was 1.09 nM.
`CC(=O)Nc1ncc(CN2CCC(=Cc3ccc(OC(=O)OC(C)(C)C)cc3)CC2)s1` [Example 5, 4-((1-((2-acetamidothiazol-5-yl)methyl)piperidin-4-ylidene)methyl)phenyl tert-butyl carbonate] showed a Ki of 3.53 nM.
For `CC(=O)Nc1ncc(CN2CCC(=Cc3ccc(N)nc3)CC2)s1` [Example 6, N-[5-({4-[(6-aminopyridin-3-yl)methylidene]piperidin-1-yl}methyl)-1,3-thiazol-2-yl]acetamide], the Ki was 0.635 nM.
For `CC(=O)Nc1ncc(CN2CCC(=Cc3cccc(CO)c3)CC2)s1` [Example 7, N-(5-((4-(3-(hydroxymethyl)benzylidene)piperidin-1-yl)methyl)thiazol-2-yl)acetamide], the Ki was 0.69 nM.
Compound `CC(=O)Nc1ncc(CN2CCC(=Cc3cn[nH]c3)CC2)s1` [Example 8, N-(5-((4-((1H-pyrazol-4-yl)methylene)piperidin-1-yl)methyl)thiazol-2-yl)acetamide] has a Ki of 0.387 nM.
In the case of `CC(=O)Nc1ncc(CN2CCC(=Cc3ccc(C(N)=O)cc3)CC2)s1` [Example 9, 4-((1-((2-acetamidothiazol-5-yl)methyl)-piperidin-4-ylidene)methyl)benzamide], the Ki is reported as 0.294 nM.
In the case of `CC(=O)Nc1ncc(CN2CCC(=Cc3cccc(CC(N)=O)c3)CC2)s1` [Example 10, 2-(3-((1-((2-acetamidothiazol-5-yl)methyl)-piperidin-4-ylidene)methyl)phenyl) acetamide], the Ki is reported as 0.614 nM.
For `CC(=O)Nc1ncc(CN2CCC(=Cc3ccc(OC(F)(F)F)cc3)CC2)s1` [Example 11, N-(5-((4-(4-(trifluoromethoxy)benzylidene)-piperidin-1-yl)methyl)thiazol-2-yl)acetamide], the Ki was 3.15 nM.
In the case of `CCc1ccc(C=C2CCN(Cc3cnc(NC(C)=O)s3)CC2)cc1` [Example 12, N-(5-((4-(4-ethylbenzylidene)piperidin-1-yl)methyl)thiazol-2-yl)acetamide], the Ki is reported as 0.703 nM.
Compound `CC(=O)Nc1ncc(CN2CCC(=Cc3ccc(C)cc3)CC2)s1` [Example 13, N-(5-((4-(4-methylbenzylidene)piperidin-1-yl)methyl)thiazol-2-yl)acetamide] has a Ki of 0.741 nM.
`CCOc1ccc(C=C2CCN(Cc3cnc(NC(C)=O)s3)CC2)cc1` [Example 14, N-(5-((4-(4-ethoxybenzylidene)piperidin-1-yl)methyl)thiazol-2-yl)acetamide] gave a Ki of 1.45 nM.
`CC(=O)Nc1ncc(CN2CCC(=Cc3cncnc3)CC2)s1` [Example 15, N-(5-((4-(pyrimidin-5-ylmethylene)piperidin-1-yl)methyl)thiazol-2-yl)acetamide] showed a Ki of 3.37 nM.
`COc1cccc(C=C2CCN(Cc3cnc(NC(C)=O)s3)CC2)c1OC` [Example 16, N-[5-({4-[(2,3-dimethoxyphenyl)methylidene]piperidin-1-yl}methyl)-1,3-thiazol-2-yl]acetamide] was tested, and the Ki was 3.4 nM.
`CC(=O)Nc1ncc(CN2CCC(=Cc3ccc(S(=O)(=O)N(C)C)cc3)CC2)s1` [Example 17, N-(5-((4-(4-(N,N-dimethylsulfamoyl)benzylidene)piperidin-1-yl)methyl)thiazol-2-yl)acetamide] gave a Ki of 0.0954 nM.
Compound `CC(=O)Nc1ncc(CN2CCC(=Cc3ccc4[nH]ccc4c3)CC2)s1` [Example 18, N-(5-{[4-(1H-indol-5-ylmethylidene)piperidin-1-yl]methyl}-1,3-thiazol-2-yl)acetamide] has a Ki of 0.427 nM.
`CC(=O)Nc1ncc(CN2CCC(=Cc3ccc4c(c3)OCO4)CC2)s1` [Example 19, N-(5-{[4-(1,3-benzodioxol-5-ylmethylidene)piperidin-1-yl]methyl}-1,3-thiazol-2-yl)acetamide] showed a Ki of 1.03 nM.
In the case of `CC(=O)Nc1ncc(CN2CCC(=Cc3ccc4c(c3)OCCO4)CC2)s1` [Example 20, N-(5-{[4-(2,3-dihydro-1,4-benzodioxin-6-ylmethylidene)piperidin-1-yl]methyl}-1,3-thiazol-2-yl)acetamide], the Ki is reported as 1.79 nM.
`CC(=O)Nc1ncc(CN2CCC(=Cc3ccc4c(c3)CNC4=O)CC2)s1` [Example 21, N-(5-((4-((1-oxoisoindolin-5-yl)methylene)piperidin-1-yl)methyl)thiazol-2-yl)acetamide] gave a Ki of 0.268 nM.
`COc1cc(C=C2CCN(Cc3cnc(NC(C)=O)s3)CC2)ccc1O` [Example 22, N-[5-({4-[(4-hydroxy-3-methoxyphenyl)methylidene]piperidin-1-yl}methyl)-1,3-thiazol-2-yl]acetamide] showed a Ki of 0.634 nM.
For `COc1ccc(C=C2CCN(Cc3cnc(NC(C)=O)s3)CC2)cc1O` [Example 23, N-[5-({4-[(3-hydroxy-4-methoxyphenyl)methylidene]piperidin-1-yl}methyl)-1,3-thiazol-2-yl]acetamide], the Ki was 1.51 nM.
In the case of `COC(=O)c1ccc(C=C2CCN(Cc3cnc(NC(C)=O)s3)CC2)cc1` [Example 24, methyl 4-((1-((2-acetamidothiazol-5-yl)methyl)piperidin-4-ylidene)methyl)benzoate], the Ki is reported as 1.37 nM.
In the case of `CC(=O)Nc1ncc(CN2CCC(=Cc3ccc(CF)cc3)CC2)s1` [Example 26, N-(5-((4-(4-(fluoromethyl)benzylidene)piperidin-1-yl)methyl)thiazol-2-yl)acetamide], the Ki is reported as 0.167 nM and 0.0753 nM.
With `CC(=O)Nc1ncc(CN2CCC(=Cc3ccc(CCF)cc3)CC2)s1` [Example 27, N-(5-((4-(4-(2-fluoroethyl)-benzylidene)piperidin-1-yl)methyl)thiazol-2-yl)acetamide] the Ki was 0.411 nM.
With `CC(=O)N(C)c1ncc(CN2CCC(=Cc3ccc(CCF)cc3)CC2)s1` [Example 28, N-(5-((4-(4-(2-fluoroethyl)benzylidene)-piperidin-1-yl)methyl)thiazol-2-yl)-N-methylacetamide] the Ki was 5.71 nM.
`CC(=O)Nc1ncc(CN2CCC(=Cc3ccc(C(=O)O)cc3)CC2)s1` [Example 29, 4-[(1-{[2-(acetylamino)-1,3-thiazol-5-yl]methyl}piperidin-4-ylidene)methyl]benzoic acid] showed a Ki of 0.324 nM.
`CNC(=O)c1ccc(C=C2CCN(Cc3cnc(NC(C)=O)s3)CC2)cc1` [Example 30, 4-[(1-{[2-(acetylamino)-1,3-thiazol-5-yl]methyl}piperidin-4-ylidene)methyl]-N-methylbenzamide] showed a Ki of 0.43 nM.
In the case of `CC(=O)Nc1ncc(CN2CCC(=Cc3ccc(C(=O)N(C)C)cc3)CC2)s1` [Example 31, 4-((1-((2-acetamidothiazol-5-yl)methyl)piperidin-4-ylidene)methyl)-N,N-dimethylbenzamide], the Ki is reported as 0.117 nM.
`CC(=O)Nc1ncc(CN2CCC(=Cc3ccc(F)cc3)CC2)s1` [Example 32, N-[5-({4-[(4-fluorophenyl)methylidene]piperidin-1-yl}methyl)-1,3-thiazol-2-yl]acetamide] was tested, and the Ki was 2.7 nM.
With `CC(=O)Nc1ncc(CN2CCC(=Cc3ccccc3)CC2)s1` [Example 33, N-(5-{[4-(phenyl-methylidene)piperidin-1-yl]methyl}-1,3-thiazol-2-yl)acetamide] the Ki was 1.75 nM.
`CC(=O)Nc1ncc(CN2CC/C(=C/c3ccccc3)C[C@@H]2C)s1` [Example 34, (S,Z)-N-(5-{(4-benzylidene-2-methylpiperidin-1-yl)methyl)thiazol-2-yl)acetamide] showed a Ki of 1.04 nM.
Work on `CC(=O)Nc1ncc(CN2CC/C(=C/c3ccccc3)C[C@H]2C)s1` [Example 35, (R,Z)-N-(5-((4-benzylidene-2-methylpiperidin-1-yl)methyl)thiazol-2-yl)acetamide] yielded a Ki of 56.6 nM.
Work on `CC(=O)Nc1ncc(CN2CC/C(=C\c3ccccc3)C[C@H]2C)s1` [Example 36, (R,E)-N-(5-((4-benzylidene-2-methylpiperidin-1-yl)methyl)thiazol-2-yl)acetamide] yielded a Ki of 412 nM.
With `CC(=O)Nc1ncc(CN2CC/C(=C\c3ccccc3)C[C@@H]2C)s1` [Example 37, (S,E)-N-(5-((4-benzylidene-2-methylpiperidin-1-yl)methyl)thiazol-2-yl)acetamide] the Ki was 29.8 nM.
With `COc1ccc(/C=C2/CCN(Cc3cnc(NC(C)=O)s3)[C@@H](C)C2)cc1` [Example 38, (S,Z)-N-(5-((4-(4-methoxybenzylidene)-2-methylpiperidin-1-yl)methyl)thiazol-2-yl)acetamide] the Ki was 0.287 nM.
Work on `COc1ccc(/C=C2\CCN(Cc3cnc(NC(C)=O)s3)[C@H](C)C2)cc1` [Example 39, (R,E)-N-(5-((4-(4-methoxybenzylidene)-2-methylpiperidin-1-yl)methyl)thiazol-2-yl)acetamide] yielded a Ki of 126 nM.
`COc1ccc(/C=C2/CCN(Cc3cnc(NC(C)=O)s3)[C@H](C)C2)cc1` [Example 40, (R,Z)-N-(5-((4-(4-methoxybenzylidene)-2-methylpiperidin-1-yl)methyl)thiazol-2-yl)acetamide] was tested, and the Ki was 71.2 nM.
